Test results published in publication PMC6628435, “Chemical Synthesis, Proper Folding, Nav Channel Selectivity Profile and Analgesic Properties of the Spider Peptide Phlotoxin 1” (Toxins, 2019).
Bridge positions count the residues as written; N and C are the ends. Peptide text beside a SMILES is read from it.

Tested on: para/tipE
Assay: Two-electrode voltage-clamp on Xenopus laevis oocytes expressing insect Nav channel para/tipE
Format: cell-based, Fruit fly
Conditions: 1 µM; voltage of maximum sodium influx, holding −90 mV; oocytes TEVC; n ≥ 3
Excerpt: Using the two-electrode voltage-clamp technique on Xenopus laevis oocytes, the effect of PhlTx1 was also compared on eight different cloned vertebrate Nav channels co-expressed with the β1 subunit (Nav1.1-1.8/β1) and on the neuronal insect Nav channel, para, co-expressed with the tipE subunit (Figure 3 and Figure 4). […] Normalized current-voltage relationships (I-V curve) of Nav1.2/β1 and Nav1.3/β1 channels seemed to be shifted towards more negative potentials when PhlTx1 was applied, but shifts were not statistically significant […] (Figure 4). The activation phase of the other studied Nav channel subtypes was not affected. No obvious alteration in channel availability was observed, except a 5-mV negative shift for Nav1.3/β1, although that was also non-significant (p > 0.05).
Figure 4 1 µM of PhlTx1 was tested on Nav1.1/β1, Nav1.2/β1, Nav1.3/β1, Nav1.4/β1, Nav1.5/β1, Nav1.6/β1, Nav1.8/β1 and para/tipE (n ≥ 3). Left column: current traces were evoked by a 50-ms depolarization to the voltage of maximum sodium influx, depending on the Nav studied, from a holding potential of −90 mV. At 1 µM PhlTx1, all studied Nav channels, except Nav1.4/β1, were blocked for about 10% (no toxin: *). The current of Nav1.4/β1 was reduced for about 35 ± 5%. Middle column: normalized I-V curves reveal no significant shift of the activation voltage (p > 0.05). […]

For `CC(C)C[C@@H]1NC(=O)[C@@H](NC(=O)[C@H](C)N)CSSC[C@@H]2NC(=O)[C@@H]3CSSC[C@@H](C(=O)N[C@@H](CCCNC(=N)N)C(=O)N[C@@H](Cc4ccc(O)cc4)C(=O)N[C@@H](CCCCN)C(=O)N[C@@H](CC(C)C)C(=O)N[C@@H](Cc4ccccc4)C(=O)O)NC(=O)[C@H](Cc4c[nH]c5ccccc45)NC(=O)[C@@H]4CCCN4C(=O)[C@H](Cc4ccc(O)cc4)NC(=O)[C@H](CCCCN)NC(=O)[C@H](Cc4c[nH]c5ccccc45)NC(=O)[C@H](CCC(=O)O)NC(=O)[C@H](CSSC[C@H](NC(=O)[C@H](CO)NC(=O)[C@H](CC(=O)O)NC(=O)[C@H](Cc4c[nH]c5ccccc45)NC(=O)[C@H](CCC(N)=O)NC(=O)CNC1=O)C(=O)N[C@@H](CC(=O)O)C(=O)N1CCC[C@H]1C(=O)N[C@@H](CCCCN)C(=O)N[C@@H](C)C(=O)N[C@@H](CO)C(=O)N[C@@H](CCCCN)C(=O)N3)NC(=O)[C@H](C)NC(=O)[C@H](Cc1ccc(O)cc1)NC(=O)[C@H](CC(N)=O)NC(=O)[C@@H]1CCCN1C2=O` [PhlTx1, Phlotoxin-1] (H-ACLGQWDSCDPKASKCCPNYACEWKYPWCRYKLF-OH; disulfide 2-17, 9-22, 16-29; N-terminus and C-terminus assumed), the “block of sodium current” value was “about 10%”.
